Data published in US20090299044A1 (priority 2006, published 2009).
Bridge positions count the residues as written; N and C are the ends. Peptide text beside a SMILES is read from it.

Tests used:
Assay in all cases: cell-based
human Kv1.1 (HEK293) = target: T1, human Kv1.1 (HEK293) (Homo sapiens, UniProt Q09470)
T1 construct: expressed in transfected cells; host or cells: HEK293

human Kv1.3 (CHO) = target: T2, human Kv1.3 (CHO) (Homo sapiens, UniProt P22001)
T2 construct: expressed in transfected cells; host or cells: CHO
T2 sequence (P22001 whole entry): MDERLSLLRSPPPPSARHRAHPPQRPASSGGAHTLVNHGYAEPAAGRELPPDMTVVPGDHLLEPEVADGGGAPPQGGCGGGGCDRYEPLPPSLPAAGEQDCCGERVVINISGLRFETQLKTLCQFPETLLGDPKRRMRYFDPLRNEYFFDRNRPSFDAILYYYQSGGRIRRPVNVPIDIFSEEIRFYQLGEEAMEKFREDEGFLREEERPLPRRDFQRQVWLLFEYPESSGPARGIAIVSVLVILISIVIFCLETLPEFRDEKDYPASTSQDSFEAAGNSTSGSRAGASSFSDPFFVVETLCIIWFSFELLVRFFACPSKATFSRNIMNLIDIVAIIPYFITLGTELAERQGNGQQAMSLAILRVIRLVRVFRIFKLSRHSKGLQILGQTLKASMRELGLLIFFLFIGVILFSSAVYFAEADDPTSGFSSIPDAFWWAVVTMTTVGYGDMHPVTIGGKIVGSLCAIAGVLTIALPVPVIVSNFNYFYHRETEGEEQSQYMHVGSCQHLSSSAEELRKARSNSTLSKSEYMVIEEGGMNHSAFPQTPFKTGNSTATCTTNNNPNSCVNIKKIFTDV

human Kv1.3 channel = human Kv1.3 channel (Homo sapiens, UniProt P22001); format: cell-based
human Kv1.3 channel, sequence (P22001 whole entry): as above

human Kv1.1 = human Kv1.1 (Homo sapiens, UniProt Q09470); set-up: expressed in transfected cells; host or cells: HEK293; conditions: Kv1.1 (IC50, pM)
human Kv1.1, sequence (Q09470 whole entry): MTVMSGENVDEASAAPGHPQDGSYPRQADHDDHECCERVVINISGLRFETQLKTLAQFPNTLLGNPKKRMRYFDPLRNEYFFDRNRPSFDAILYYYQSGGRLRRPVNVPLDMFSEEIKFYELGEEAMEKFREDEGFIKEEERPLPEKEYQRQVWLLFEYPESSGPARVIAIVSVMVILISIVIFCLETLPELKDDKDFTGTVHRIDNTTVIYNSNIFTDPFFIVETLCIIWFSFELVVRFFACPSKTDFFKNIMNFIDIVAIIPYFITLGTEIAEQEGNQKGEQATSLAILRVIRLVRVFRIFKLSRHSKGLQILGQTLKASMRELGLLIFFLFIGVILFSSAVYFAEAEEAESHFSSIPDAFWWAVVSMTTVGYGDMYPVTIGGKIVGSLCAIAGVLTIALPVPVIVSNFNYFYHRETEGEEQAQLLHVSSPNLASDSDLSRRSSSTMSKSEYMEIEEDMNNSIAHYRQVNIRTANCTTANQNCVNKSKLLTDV

T1 sequence (Q09470 whole entry): as above

Row | SMILES | IC50 (human Kv1.1 (HEK293)) [pM] | IC50 (human Kv1.3 (CHO)) [pM] | IC50 (human Kv1.3 channel) [pM] | IC50 (human Kv1.1) [pM]
1 | CC[C@H](C)[C@@H]1NC(=O)[C@H](CCCCN)NC(=O)[C@@H](NC(=O)[C@H](CCCCN)NC(=O)[C@@H](NC(=O)[C@H](CC(N)=O)NC(=O)[C@@H](NC(=O)[C@@H](NC(=O)[C@@H](NC(=O)CN)C(C)C)[C@@H](C)CC)[C@@H](C)CC)C(C)C)CSSC[C@@H]2NC(=O)[C@H](CCCCN)NC(=O)CNC(=O)[C@H](Cc3ccccc3)NC(=O)[C@H](CCCNC(=N)N)NC(=O)[C@H](CCSC)NC(=O)CNC(=O)[C@H](C)NC(=O)[C@H](CCCCN)NC(=O)[C@H](CCCCN)NC(=O)[C@@H]3CSSC[C@@H](C(=O)N[C@H](C(=O)N4CCC[C@H]4C(=O)N[C@@H](CCCCN)C(=O)O)[C@@H](C)O)NC(=O)[C@H](C)NC(=O)[C@H](CSSC[C@H](NC(=O)[C@H](CCC(N)=O)NC(=O)[C@H](CCCNC(=N)N)NC(=O)[C@H](CO)NC1=O)C(=O)N[C@@H](CC(C)C)C(=O)N[C@@H](CCC(=O)O)C(=O)N1CCC[C@H]1C(=O)N3)NC(=O)[C@H](CCCCN)NC(=O)CNC(=O)[C@H](CC(N)=O)NC(=O)[C@H](CCSC)NC2=O [H34A] (H-GVIINVKCKISRQCLEPCKKAGMRFGKCMNGKCACTPK-OH; disulfide 8-28, 14-33, 18-35) | 368 | 19.4 | 16 | 12800
2 | CC[C@H](C)[C@@H]1NC(=O)[C@H](CCCCN)NC(=O)[C@@H](NC(=O)[C@H](CCCCN)NC(=O)[C@@H](NC(=O)[C@H](CC(N)=O)NC(=O)[C@@H](NC(=O)[C@@H](NC(=O)[C@@H](NC(=O)CN)C(C)C)[C@@H](C)CC)[C@@H](C)CC)C(C)C)CSSC[C@@H]2NC(=O)[C@H](CCCCN)NC(=O)CNC(=O)[C@H](Cc3ccccc3)NC(=O)[C@H](CCCNC(=N)N)NC(=O)[C@H](CCSC)NC(=O)CNC(=O)[C@H](C)NC(=O)[C@H](CCCCN)NC(=O)[C@H](CCCCN)NC(=O)[C@@H]3CSSC[C@@H](C(=O)N[C@H](C(=O)N4CCC[C@H]4C(=O)N[C@@H](CCCCN)C(=O)O)[C@@H](C)O)NC(=O)[C@H](CCC(=O)O)NC(=O)[C@H](CSSC[C@H](NC(=O)[C@H](CCC(N)=O)NC(=O)[C@H](CCCNC(=N)N)NC(=O)[C@H](CO)NC1=O)C(=O)N[C@@H](CC(C)C)C(=O)N[C@@H](CCC(=O)O)C(=O)N1CCC[C@H]1C(=O)N3)NC(=O)[C@H](CCCCN)NC(=O)CNC(=O)[C@H](CC(N)=O)NC(=O)[C@H](CCSC)NC2=O [H34E] (H-GVIINVKCKISRQCLEPCKKAGMRFGKCMNGKCECTPK-OH; disulfide 8-28, 14-33, 18-35) | 1690 | 330 | 1320 | 39400
3 | CC[C@H](C)[C@@H]1NC(=O)[C@H](CCCCN)NC(=O)[C@@H](NC(=O)[C@H](CCCCN)NC(=O)[C@@H](NC(=O)[C@H](CC(N)=O)NC(=O)[C@@H](NC(=O)[C@@H](NC(=O)[C@@H](NC(=O)CN)C(C)C)[C@@H](C)CC)[C@@H](C)CC)C(C)C)CSSC[C@@H]2NC(=O)[C@H](CCCCN)NC(=O)CNC(=O)[C@H](Cc3ccccc3)NC(=O)[C@H](CCCNC(=N)N)NC(=O)[C@H](CCSC)NC(=O)CNC(=O)[C@H](C)NC(=O)[C@H](CCCCN)NC(=O)[C@H](CCCCN)NC(=O)[C@@H]3CSSC[C@@H](C(=O)N[C@H](C(=O)N4CCC[C@H]4C(=O)N[C@@H](CCCCN)C(=O)O)[C@@H](C)O)NC(=O)[C@H](Cc4c[nH]cn4)NC(=O)[C@H](CSSC[C@H](NC(=O)[C@H](CCC(N)=O)NC(=O)[C@H](CCCNC(=N)N)NC(=O)[C@H](CO)NC1=O)C(=O)N[C@@H](CCC(=O)O)C(=O)N[C@@H](CCC(=O)O)C(=O)N1CCC[C@H]1C(=O)N3)NC(=O)[C@H](CCCCN)NC(=O)CNC(=O)[C@H](CC(N)=O)NC(=O)[C@H](CCSC)NC2=O [L15E] (H-GVIINVKCKISRQCEEPCKKAGMRFGKCMNGKCHCTPK-OH; disulfide 8-28, 14-33, 18-35) | 436 | 47.5 | 190 | 65000
4 | CC[C@H](C)[C@@H]1NC(=O)[C@H](CCCCN)NC(=O)[C@@H](NC(=O)[C@H](CCCCN)NC(=O)[C@@H](NC(=O)[C@H](CC(N)=O)NC(=O)[C@@H](NC(=O)[C@@H](NC(=O)[C@@H](NC(=O)CN)C(C)C)[C@@H](C)CC)[C@@H](C)CC)C(C)C)CSSC[C@@H]2NC(=O)[C@H](CCCCN)NC(=O)CNC(=O)[C@H](Cc3ccccc3)NC(=O)[C@H](CCCNC(=N)N)NC(=O)[C@H](CCSC)NC(=O)CNC(=O)[C@H](C)NC(=O)[C@H](CCCCN)NC(=O)[C@H](CCCCN)NC(=O)[C@@H]3CSSC[C@@H](C(=O)N[C@H](C(=O)N4CCC[C@H]4C(=O)N[C@@H](CCCCN)C(=O)O)[C@@H](C)O)NC(=O)[C@H](Cc4c[nH]cn4)NC(=O)[C@H](CSSC[C@H](NC(=O)[C@H](CCC(N)=O)NC(=O)[C@H](CCCNC(=N)N)NC(=O)[C@H](CO)NC1=O)C(=O)N[C@@H](CC(C)C)C(=O)N[C@@H](CCC(=O)O)C(=O)N1CCC[C@H]1C(=O)N3)NC(=O)[C@H](CCCCN)NC(=O)CNC(=O)[C@H](CC(N)=O)NC(=O)[C@H](CCCNC(=N)N)NC2=O [M29R] (H-GVIINVKCKISRQCLEPCKKAGMRFGKCRNGKCHCTPK-OH; disulfide 8-28, 14-33, 18-35) | 1870 | 200 | 760 | 23000
5 | CC[C@H](C)[C@@H]1NC(=O)[C@H](CCCCN)NC(=O)[C@@H](NC(=O)[C@H](CCCCN)NC(=O)[C@@H](NC(=O)[C@H](CC(N)=O)NC(=O)[C@@H](NC(=O)[C@@H](NC(=O)[C@@H](NC(=O)CN)C(C)C)[C@@H](C)CC)[C@@H](C)CC)C(C)C)CSSC[C@@H]2NC(=O)[C@H](CCCCN)NC(=O)CNC(=O)[C@H](Cc3ccccc3)NC(=O)[C@H](CCCNC(=N)N)NC(=O)[C@H](CCSC)NC(=O)CNC(=O)[C@H](C)NC(=O)[C@H](CCCCN)NC(=O)[C@H](CCCCN)NC(=O)[C@@H]3CSSC[C@@H](C(=O)N[C@H](C(=O)N4CCC[C@H]4C(=O)N[C@@H](CCCCN)C(=O)O)[C@@H](C)O)NC(=O)[C@H](Cc4c[nH]cn4)NC(=O)[C@H](CSSC[C@H](NC(=O)[C@H](CCC(N)=O)NC(=O)[C@H](CCCNC(=N)N)NC(=O)[C@H](CO)NC1=O)C(=O)N[C@@H](CC(C)C)C(=O)N[C@@H](CCC(=O)O)C(=O)N1CCC[C@H]1C(=O)N3)NC(=O)[C@H](CCCCN)NC(=O)CNC(=O)[C@H](C)NC(=O)[C@H](CCSC)NC2=O [N30A] (H-GVIINVKCKISRQCLEPCKKAGMRFGKCMAGKCHCTPK-OH; disulfide 8-28, 14-33, 18-35) | > 3000 | 693 | 766 | 10200
6 | CC[C@H](C)[C@@H]1NC(=O)[C@H](CCCCN)NC(=O)[C@@H](NC(=O)[C@H](CCCCN)NC(=O)[C@@H](NC(=O)[C@H](CC(N)=O)NC(=O)[C@@H](NC(=O)[C@@H](NC(=O)[C@@H](NC(=O)CN)C(C)C)[C@@H](C)CC)[C@@H](C)CC)C(C)C)CSSC[C@@H]2NC(=O)[C@H](CCCCN)NC(=O)CNC(=O)[C@H](Cc3ccccc3)NC(=O)[C@H](CCCNC(=N)N)NC(=O)[C@H](CCSC)NC(=O)CNC(=O)[C@H](C)NC(=O)[C@H](CCCCN)NC(=O)[C@H](CCCCN)NC(=O)[C@@H]3CSSC[C@@H](C(=O)N[C@H](C(=O)N[C@@H](CCC(=O)O)C(=O)N[C@@H](CCCCN)C(=O)O)[C@@H](C)O)NC(=O)[C@H](Cc4c[nH]cn4)NC(=O)[C@H](CSSC[C@H](NC(=O)[C@H](CCC(N)=O)NC(=O)[C@H](CCCNC(=N)N)NC(=O)[C@H](CO)NC1=O)C(=O)N[C@@H](CC(C)C)C(=O)N[C@@H](CCC(=O)O)C(=O)N1CCC[C@H]1C(=O)N3)NC(=O)[C@H](CCCCN)NC(=O)CNC(=O)[C@H](CC(N)=O)NC(=O)[C@H](CCSC)NC2=O [P37E] (H-GVIINVKCKISRQCLEPCKKAGMRFGKCMNGKCHCTEK-OH; disulfide 8-28, 14-33, 18-35) | 622 | 62.7 | 241 | 15700
7 | CC[C@H](C)[C@@H]1NC(=O)[C@H](CCCCN)NC(=O)[C@@H](NC(=O)[C@H](CCCCN)NC(=O)[C@@H](NC(=O)[C@H](CC(N)=O)NC(=O)[C@@H](NC(=O)[C@@H](NC(=O)[C@@H](NC(=O)CN)C(C)C)[C@@H](C)CC)[C@@H](C)CC)C(C)C)CSSC[C@@H]2NC(=O)[C@H](CCCCN)NC(=O)CNC(=O)[C@H](Cc3ccccc3)NC(=O)[C@H](CCCNC(=N)N)NC(=O)[C@H](CCSC)NC(=O)CNC(=O)[C@H](C)NC(=O)[C@H](CCCCN)NC(=O)[C@H](CCCCN)NC(=O)[C@@H]3CSSC[C@@H](C(=O)N[C@H](C(=O)N4CCC[C@H]4C(=O)N[C@@H](CCCCN)C(=O)O)[C@@H](C)O)NC(=O)[C@H](Cc4c[nH]cn4)NC(=O)[C@H](CSSC[C@H](NC(=O)[C@H](CCC(N)=O)NC(=O)[C@H](C)NC(=O)[C@H](CO)NC1=O)C(=O)N[C@@H](CC(C)C)C(=O)N[C@@H](CCC(=O)O)C(=O)N1CCC[C@H]1C(=O)N3)NC(=O)[C@H](CCCCN)NC(=O)CNC(=O)[C@H](CC(N)=O)NC(=O)[C@H](CCSC)NC2=O [R12A] (H-GVIINVKCKISAQCLEPCKKAGMRFGKCMNGKCHCTPK-OH; disulfide 8-28, 14-33, 18-35) | 55.9 | 390 | 25 | 440
